In patent publication US20250179017A1 (GUANGDONG NEWOPP BIOPHARMACEUTICALS CO., LTD., priority 2022, published 2025) one finds IC50 data, which are given here for 25 molecules.

This experiment addresses T1, human EP2 (PTGER2) (Homo sapiens, UniProt P43116).
T1 construct: Cayman Chemical (Human EP2 Reporter Assay Kit)
Kind of experiment: EP2 antagonist assay (HEK-293 CNG membrane potential cAMP assay / 293T SEAP reporter assay, PGE2-stimulated). The class given is cell-based. As to conditions: EP2 antagonist activity; concentration for 50% inhibition of signal compared to DMSO. From the text:
1. The HEK-293 CNG (Cyclic Nucleotide Gated) cell line expressing a modified CNG channel that leads to cell membrane depolarization in response to elevated intracellular cAMP levels, which can be measured using a fluorescent membrane potential dye, was engineered to express human EP2 (PTGER2) or EP4 (EP4R). The resulting cell line ACTOne™ PTGER2 or ACTOne™ EP4R as well as the fluorescent membrane potential dye were purchased from eEnzyme (Gaithersburg, MD, US) and used in this assay. Briefly, cells were plated at 1.2×10^4 cells/well in 20 μL DMEM supplemented with 2% Fetal Bovine Serum (FBS, VWR International), 1x Penicillin/Streptomycin (GenClone), 0.2 μg/mL puromycin (InvivoGen) and 50 μg/mL G418 (InvivoGen) on a 384 well plate (Greiner). The next day, cells were dye-loaded with 20 μL/well of 1x Dye-loading solution (eENZYME) following the manufacturer's instruction. After 2 hours of incubation at room temperature (RT) in the dark, a pre-read was made to obtain the background signals using CLARIOstar plate reader (BMG LABTECH, Germany) with the following filter settings: excitation=530/20 nm, emission=590/20 nm. Next, a serial dilution of compound (plus a DMSO control) were added to the plate (5 μL/well) and the reaction was incubated at RT for 15 min before adding 5 μL of PGE2 to every well for a final concentration of 5 nM. All wells were duplicated. The plate was then further incubated at RT for 30 min prior to a final read with the same machine settings. Background-subtracted signals were used to calculate IC50 values.
2. Human EP2 and EP4 Reporter Assay Kits were purchased from Cayman Chemical (Ann Arbor, MI, USA). The assay was performed following the provided User Manual. Briefly, a reverse transfection was performed by seeding 6.0×10^4 of 293T cells (ATCC) to each well of the provided Strip Plate coated with a proprietary transfection complex containing DNA constructs for expressing human EP2 or EP4 and a cAMP response element regulated secreted alkaline phosphatase (SEAP) reporter, in 200 μL DMEM supplemented with 2% FBS and incubated for 20-24 hours at 37° C. with 5% CO2. After the incubation, the culture medium was carefully removed, and the cells were replenished with 150 μL pre-warmed serum-free medium. PGE2 and test compounds were prepared together at 4x the desired final concentration, and 50 μL was added to each assigned well with the final concentration of 13 nM and 2 nM PGE2 for EP2 and EP4 assay, respectively. After 6-8 hours of incubation, 10 μL media from each well was transferred to corresponding well of a new plate, which was then sealed and incubated at 65° C. for 30 min. The plate was then cooled down to RT and 50 μL SEAP substrate was added to each well. Luminescence signal was measured using a CLARIOstar plate reader.
The IC50 value was determined as the concentration for 50% inhibition of signal compared to DMSO (A: IC50 […]; B: IC50 between 100 nM and 1,000 nM; C: IC50≥1,000 nM).
Background: Cyclic AMP is a second messenger, typically raised through Gs and lowered through Gi signalling.

Bounds are passed on as bounds.

T1 sequence (P43116 whole entry): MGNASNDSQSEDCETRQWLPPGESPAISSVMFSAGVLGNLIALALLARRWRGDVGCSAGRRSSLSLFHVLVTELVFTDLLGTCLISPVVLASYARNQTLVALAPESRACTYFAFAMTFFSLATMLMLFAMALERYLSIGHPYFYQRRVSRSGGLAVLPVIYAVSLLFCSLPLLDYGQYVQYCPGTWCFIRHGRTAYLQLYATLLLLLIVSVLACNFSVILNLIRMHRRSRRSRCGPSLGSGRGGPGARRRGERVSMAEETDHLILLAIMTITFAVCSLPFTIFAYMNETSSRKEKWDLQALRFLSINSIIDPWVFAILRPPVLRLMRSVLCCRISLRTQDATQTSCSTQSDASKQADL

For the molecule `CN(c1ccccc1)c1cc(C(=O)NCc2ccc(C(=O)O)cc2)c2c(ccn2Cc2ccc(C(F)(F)F)cc2)c1` [Example 45, 4-((5-(methyl(phenyl)amino)-1-(4-(trifluoromethyl)benzyl)-1H-indole-7-carboxamido)methyl)benzoic acid], the IC50 (usually the point on the concentration scale where inhibition reaches its midpoint) lay in the range of 100 to 1000 nM.

On to `CN(c1ccccc1)c1ccc(C(=O)NC2(c3ccc(C(=O)O)cc3)CC2)c2c1ccn2Cc1ccc(C(F)(F)F)cc1` [Example 46, 4-(1-(4-(methyl(phenyl)amino)-1-(4-(trifluoromethyl)benzyl)-1H-indole-7-carboxamido)cyclopropyl)benzoic acid], for which the IC50 is at least 1000 nM.

`O=C(O)c1ccc(CNC(=O)c2cc(Nc3ccccc3)cc3ccn(Cc4ccc(C(F)(F)F)cc4)c23)cc1` [Example 47, 4-((5-(phenylamino)-1-(4-(trifluoromethyl)benzyl)-1H-indole-7-carboxamido)methyl)benzoic acid] displayed an IC50 of at least 1000 nM.

`O=C(O)c1ccc(C2(NC(=O)c3cc(Oc4ccccc4)cc4ccn(Cc5ccc(C(F)(F)F)cc5)c34)CC2)cc1` [Example 49, 4-(1-(5-phenoxy-1-(4-(trifluoromethyl)benzyl)-1H-indole-7-carboxamido)cyclopropyl)benzoic acid] had an IC50 of 100 to 1000 nM.

For `C[C@H](NC(=O)c1cc(-c2ccc(F)c(F)c2)cc2ccn(Cc3ccc(C(F)(F)F)cc3)c12)c1ccc(C(=O)O)cc1` [Example 53], the IC50 is below 100 nM.

Molecule `C[C@H](NC(=O)c1cc(-c2cc(F)cc(F)c2)cc2ccn(Cc3ccc(C(F)(F)F)cc3)c12)c1ccc(C(=O)O)cc1` [Example 54, (S)-4-(1-(5-(3,5-difluorophenyl)-1-(4-(trifluoromethyl)benzyl)-1H-indole-7-carboxamido)ethyl) benzoic acid] displayed an IC50 below 100 nM.

For the molecule `O=C(O)c1ccc(CNC(=O)c2ccc(N3CCOCC3)c3ccn(Cc4ccc(C(F)(F)F)cc4)c23)cc1` [Example 58, 4-((4-morpholino-1-(4-(trifluoromethyl)benzyl)-1H-indole-7-carboxamido)methyl)benzoic acid], the IC50 was at least 1000 nM.

`CN1CCN(c2ccc(C(=O)NCc3ccc(C(=O)O)cc3)c3c2ccn3Cc2ccc(C(F)(F)F)cc2)CC1` [Example 59, 4-((4-(4-methylpiperazin-1-yl)-1-(4-(trifluoromethyl)benzyl)-1H-indole-7-carboxamido)methyl)benzoic acid] came in with an IC50 of at least 1000 nM.

`N#Cc1cccc(Nc2ccc(C(=O)NC3(c4ccc(C(=O)O)cc4)CC3)c3c2ccn3Cc2ccc(C(F)(F)F)cc2)c1` [Example 61, 4-(1-(4-((3-cyanophenyl)amino)-1-(4-(trifluoromethyl)benzyl)-1H-indole-7-carboxamido)cyclopropyl)benzoic acid] registered an IC50 of 100 to 1000 nM.

In turn, `N#Cc1ccc(Nc2ccc(C(=O)NC3(c4ccc(C(=O)O)cc4)CC3)c3c2ccn3Cc2ccc(C(F)(F)F)cc2)cc1` [Example 62, 4-(1-(4-((4-cyanophenyl)amino)-1-(4-(trifluoromethyl)benzyl)-1H-indole-7-carboxamido)cyclopropyl)benzoic acid] came in with a 50% inhibitory concentration (IC50) of at least 1000 nM.

On to `O=C(O)c1ccc(C2(NC(=O)c3ccc(Nc4ccc(F)c(F)c4)c4ccn(Cc5ccc(C(F)(F)F)cc5)c34)CC2)cc1` [Example 63, 4-(1-(4-((3,4-difluorophenyl)amino)-1-(4-(trifluoromethyl)benzyl)-1H-indole-7-carboxamido)cyclopropyl)benzoic acid], for which the half-inhibitory concentration (IC50) lay within 100 to 1000 nM.

Molecule `O=C(O)c1ccc(C2(NC(=O)c3ccc(Nc4ccc(F)cc4)c4ccn(Cc5ccc(C(F)(F)F)cc5)c34)CC2)cc1` [Example 64, 4-(1-(4-((4-fluorophenyl)amino)-1-(4-(trifluoromethyl)benzyl)-1H-indole-7-carboxamido)cyclopropyl)benzoic acid] returned an IC50 below 100 nM.

With `O=C(O)c1ccc(C2(NC(=O)c3ccc(Nc4ccc(F)c(Cl)c4)c4ccn(Cc5ccc(C(F)(F)F)cc5)c34)CC2)cc1` [Example 65, 4-(1-(4-((3-chloro-4-fluorophenyl)amino)-1-(4-(trifluoromethyl)benzyl)-1H-indole-7-carboxamido)cyclopropyl)benzoic acid], the IC50 lay within 100 to 1000 nM.

As for `O=C(O)c1ccc(C2(NC(=O)c3ccc(Nc4cc(F)cc(F)c4)c4ccn(Cc5ccc(C(F)(F)F)cc5)c34)CC2)cc1` [Example 66, 4-(1-(4-((3,5-difluorophenyl)amino)-1-(4-(trifluoromethyl)benzyl)-1H-indole-7-carboxamido)cyclopropyl)benzoic acid], the IC50 lay in the range of 100 to 1000 nM.

`O=C(O)c1ccc(C2(NC(=O)c3ccc(Nc4cccc(F)c4)c4ccn(Cc5ccc(C(F)(F)F)cc5)c34)CC2)cc1` [Example 67, 4-(1-(4-((3-fluorophenyl)amino)-1-(4-(trifluoromethyl)benzyl)-1H-indole-7-carboxamido)cyclopropyl)benzoic acid] came in with a concentration for half-maximal inhibition (IC50) below 100 nM.

Regarding `N#Cc1cccc(Nc2ccc(C(=O)NCc3ccc(C(=O)O)cc3)c3c2ccn3Cc2ccc(C(F)(F)F)cc2)c1` [Example 68, 4-((4-((3-cyanophenyl)amino)-1-(4-(trifluoromethyl)benzyl)-1H-indole-7-carboxamido)methyl)benzoic acid], the half-maximal inhibitory concentration (IC50) is below 100 nM.

For `O=C(O)c1ccc(CNC(=O)c2ccc(Nc3ccc(F)c(Cl)c3)c3ccn(Cc4ccc(C(F)(F)F)cc4)c23)cc1` [Example 70], the 50% inhibitory concentration (IC50) was below 100 nM.

With `O=C(O)c1ccc(CNC(=O)c2ccc(Nc3ccc(Cl)c(F)c3)c3ccn(Cc4ccc(C(F)(F)F)cc4)c23)cc1` [Example 71, ((4-((4-chloro-3-fluorophenyl)amino)-1-(4-(trifluoromethyl)benzyl)-1H-indole-7-carboxamido)methyl)benzoic acid acid], the IC50 was in the range of 100 to 1000 nM.

Molecule `O=C(O)c1ccc(CNC(=O)c2ccc(Nc3cccc(F)c3)c3ccn(Cc4ccc(C(F)(F)F)cc4)c23)cc1` [Example 72, 4-((4-((3-fluorophenyl)amino)-1-(4-(trifluoromethyl)benzyl)-1H-indole-7-carboxamido)methyl)benzoic acid] displayed an IC50 below 100 nM.

In turn, `O=C(O)c1ccc(CNC(=O)c2ccc(Nc3ccc(Cl)cc3)c3ccn(Cc4ccc(C(F)(F)F)cc4)c23)cc1` [Example 73, ((4-((4-chlorophenyl)amino)-1-(4-(trifluoromethyl)benzyl)-1H-indole-7-carboxamido)methyl)benzoic acid] showed a half-inhibitory concentration (IC50) of 100 to 1000 nM.

For `O=C(O)c1ccc(CNC(=O)c2cc(-c3cccc(Cl)c3)cc3ccn(Cc4ccc(C(F)(F)F)cc4)c23)cc1` [Example 75, 4-((5-(3-chlorophenyl)-1-(4-(trifluoromethyl)benzyl)-1H-indole-7-carboxamido)methyl)benzoic acid], the IC50 was below 100 nM.

`N#Cc1cc(-c2cc(C(=O)NCc3ccc(C(=O)O)cc3)c3c(ccn3Cc3ccc(C(F)(F)F)cc3)c2)ccc1F` [Example 79, 4-((5-(3-cyano-4-fluorophenyl)-1-(4-(trifluoromethyl)benzyl)-1H-indole-7-carboxamido)methyl)benzoic] showed a 50% inhibitory concentration (IC50) of 100 to 1000 nM.

`N#Cc1ccc(-c2cc(C(=O)NCc3ccc(C(=O)O)cc3)c3c(ccn3Cc3ccc(C(F)(F)F)cc3)c2)cc1` [Example 81, 4-((5-(4-cyanophenyl)-1-(4-(trifluoromethyl)benzyl)-1H-indole-7-carboxamido)methyl)benzoic acid] displayed an IC50 below 100 nM.

With `NC(=O)c1cccc(-c2cc(C(=O)NCc3ccc(C(=O)O)cc3)c3c(ccn3Cc3ccc(C(F)(F)F)cc3)c2)c1` [Example 82, 4-((5-(3-carbamoylphenyl)-1-(4-(trifluoromethyl)benzyl)-1H-indole-7-carboxamido)methyl)benzoic acid], the IC50 is below 100 nM.

For `NS(=O)(=O)c1cccc(-c2cc(C(=O)NCc3ccc(C(=O)O)cc3)c3c(ccn3Cc3ccc(C(F)(F)F)cc3)c2)c1` [Example 83, 4-((5-(3-sulfamoylphenyl)-1-(4-(trifluoromethyl)benzyl)-1H-indole-7-carboxamido)methyl)benzoic acid], the half-inhibitory concentration (IC50) is below 100 nM.
